{"source": "patent US20180273970A1", "about": "“PLASMID, TRANSFORMED PLANT CELL AND TRANSGENIC PLANT COMPRISING THE SAME, AND METHODS FOR PREPARING A TRANSGENIC PLANT AND FOR INCREASING YIELD OF A PLANT UNDER ABIOTIC STRESSES” (Academia Sinica, priority 2014, published 2018)", "type_in_all_cases": "cell-based", "key": {"αAmy3 SRC promoter [1]": {"test_system": "αAmy3 SRC promoter", "assay": "Barley aleurone transient expression assay, SRC-35Smp:Luc reporter (luciferase)", "conditions": "barley aleurones, 5 μM ABA or 400 mM sorbitol, 24 h", "procedure": "(§1) FIG. 21. ABA and sorbitol suppress the function of SnRK1A in activation of αAmy3 SRC promoter. Rice embryos and barley aleurones were transfected with reporter SRC-35Smp:Luc with or without effectors, incubated with or without ABA for 24 h, and assayed for luciferase activity. The luciferase activity in embryos or aleurones bombarded with the SRC-35S mp-Luc construct only and in +S medium was set to 1×, and other values were calculated relative to this value. Error bars indicate the SE for three replicate experiments. (A) Plasmid constructs. (B) Barley aleurones were transfected with effector Ubi:SnRK1A, Ubi:SKIN1 or Ubi:SKIN(Ri) alone and reporter SRC-35Smp:Luc, or co-transfected with effectors Ubi:SnRK1A and Ubi:SKIN or Ubi:SKIN(Ri) and reporter SRC-35Smp:Luc. (C) Rice embryos (upper panel) were transfected with or without Ubi:SnRK1A and incubated with or without 1 μM ABA or 50 mM sorbitol, and barley aleurones (lower panel) were transfected with or without Ubi:SnRK1A and incubated with 5 μM ABA or 400 mM sorbitol.\nThe barley aleurone/endosperm transient expression assays were performed as described (Hong et al., 2012). Each independent experiment consisted of three replicates, with six endosperms for each treatment, and was repeated three times with similar results. Luciferase and GUS activity assays were performed as described (Hong et al., 2012). […]"}, "αAmy3 SRC promoter [2]": {"test_system": "αAmy3 SRC promoter", "assay": "Rice embryo transient expression assay, SRC-35Smp:Luc reporter (luciferase)", "conditions": "rice embryos, 1 μM ABA or 50 mM sorbitol, 24 h", "procedure": "FIG. 3. The highly conserved GKSKSF domain (KSD) is essential for SKINs to antagonize the function of SnRK1A. Rice embryos were transfected with plasmids, incubated in medium with 100 mM glucose (+S) or without glucose (−S) for 24 h, and assayed for luciferase activity. The luciferase activity in rice embryos bombarded with the SRC-35S mp-Luc construct only and in +S medium was set to 1×, and other values were calculated relative to this value. Error bars indicate the SE for three replicate experiments. (A) Plasmid constructs. (B) Rice embryos were co-transfected with effector Ubi:SnRK1A, Ubi:SKIN1 or Ubi:SKIN(Ri) alone and reporter SRC-35Smp:Luc, or co-transfected with effectors Ubi:SnRK1A and Ubi:SKIN or Ubi:SKIN(Ri) and reporter SRC-35Smp:Luc. (C) Total cellular proteins were extracted from rice embryos transfected with Ubi:SnRK1A, Ubi:SKIN or Ubi:SnRK1A and Ubi:SKIN by particle bombardment and subjected to Western blot analysis using antibodies against SnRK1A and the HA tag fused to at the N-terminus of SKINs. (D) Rice embryos were co-transfected with effectors Ubi:SnRK1A and Ubi:SKIN1 (wild-type or truncated) and reporter SRC-35Smp:Luc. (E) Rice embryos were co-transfected with effectors Ubi:SnRK1A and Ubi:SKIN (wild-type, KSD deleted, or KSD replaced with 6 Ala) and reporter SRC-35Smp:Luc.\nas §1\nRice embryos were prepared for particle bombardment as described (Chen et al., 2006). The rice embryos were bombarded with reporter, effectors and internal control at a ratio of 4:2:1 for single effector or 4:2:2:1 for two effectors. The internal control (Ubi::GUS) was used to normalize the reporter enzyme activity because different transformation efficiency might occur in each independent experiment. Bombarded rice embryos were divided into two halves, with half being incubated in MS liquid medium containing 100 mM Glc, and the other half grown in MS liquid containing 100 mM mannitol, for 24 h. Total proteins were extracted for embryos with a cell lysis buffer [0.1 M K-phosphate, pH 7.8, 1 mM EDTA, 10% glycerol, 1% triton X-100, and 7 mM β-mercaptoethanol]. GUS assay buffer [0.1 M Na-phosphate, 20 mM EDTA, 0.2% sarcosine, 0.2% Triton X-100, and 20 mM β-mercaptoethanol] was used for GUS activity assay. The activity assay of GUS and luciferase were described elsewhere (Lu et al., 1998). All bombardments were repeated at least three times."}, "SnRK1A-GFP": {"test_system": "SnRK1A-GFP", "assay": "Cellular localization of SnRK1A-GFP in transfected barley aleurones (confocal microscopy)", "conditions": "48 h; for % of total cells with SnRK1A-GFP in location [drawing 1] (nucleus) / % of total cells with SnRK1A-GFP in location [drawing 2] (cytoplasm) / Number of cells with SnRK1A-GFP in location [drawing 1] (nucleus) / Number of cells with SnRK1A-GFP in location [drawing 2] (cytoplasm): +ABA", "procedure": "FIG. 10. ABA restricts SKINs, SnRK1A and MYBS1 in the cytoplasm under sugar starvation. Barley aleurones were co-transfected with indicated plasmid constructs and incubated in +S or −S medium with ABA (+ABA) or without ABA (−ABA) for 48 h. Thirty optical sections of 0.9-1.1 μm thickness were prepared for each cell and only five regularly spaced sections (sections 3, 9, 15, 21 and 27) are shown here. C and N indicate higher GFP signals, and c and n indicate lower GFP signals in the cytoplasm and nucleus, respectively. For more section images of each cell, see also FIG. 22 online. (A) Barley aleurones were transfected with Ubi:SKIN1-GFP, Ubi:SKIN2-GFP, Ubi:SnRK1A-GFP or Ubi:MYBS1-GFP alone. (B) Barley aleurones were transfected with Ubi.MYBS1-GFP alone (panel 1) or co-transfected with Ubi.MYBS1-GFP and Ubi:SnRK1A (panel 2), or with Ubi.MYBS1-GFP and Ubi:SnRK1A(Ri) (panel 3). (C) Barley aleurones were co-transfected with Ubi:SnRK1A-GFP and Ubi:SKIN(Ri). (D) Wild type rice (WT) or transgenic rice overexpression Ubi:SKIN(Ri) were transfected with Ubi:SnRK1A-GFP (panels 1-3) or Ubi.MYBS1-GFP (panels 4-6).\nDetection of cellular localization of SKIN-GFP, SnRK1A-GFP and MYBS1-GFP fusion proteins were performed as described (Hong et al., 2012). Embryoless barley and rice seeds were sterilized with 1% NaOCl for 30 mins, and incubated in a buffer containing 20 mM CaCl2 and 20 mM sodium succinate, pH 5.0, for 4 days. Aleurone layers were isolated by scratching away starch in the endosperm with a razor blade. Four aleurone layers were arranged in a 10-cm dish for bombardment. Aleurone layers expressing GFP were examined with a Ziess confocal microscope (LSM510META) using a 488-nm laser line for excitation and a 515- to 560-nm long pass filter for emission."}}}
{"smiles": "CC1=CC(=O)CC(C)(C)[C@@]1(O)/C=C/C(C)=C\\C(=O)O", "note": "[ABA, abscisic acid]", "values": [{"measurement": "Effect on αAmy3 SRC promoter (luciferase activity), alone and SnRK1A-activated", "setting": "αAmy3 SRC promoter [1]", "result": "suppressed"}, {"measurement": "Effect on αAmy3 SRC promoter (luciferase activity), alone and SnRK1A-activated", "setting": "αAmy3 SRC promoter [2]", "result": "suppressed"}, {"measurement": "% of total cells with SnRK1A-GFP in location [drawing 1] (nucleus)", "setting": "SnRK1A-GFP; +S medium", "result": 15.8, "unit": "%"}, {"measurement": "% of total cells with SnRK1A-GFP in location [drawing 2] (cytoplasm)", "setting": "SnRK1A-GFP; +S medium", "result": 84.2, "unit": "%"}, {"measurement": "Number of cells with SnRK1A-GFP in location [drawing 1] (nucleus)", "setting": "SnRK1A-GFP; +S medium", "result": 6}, {"measurement": "Number of cells with SnRK1A-GFP in location [drawing 2] (cytoplasm)", "setting": "SnRK1A-GFP; +S medium", "result": 32}, {"measurement": "Localization of SnRK1A-GFP", "setting": "SnRK1A-GFP; −S medium containing ABA", "result": "exclusively localized in the cytoplasm"}, {"measurement": "% of total cells with SnRK1A-GFP in location [drawing 1] (nucleus)", "setting": "SnRK1A-GFP; −S medium", "result": 8.0, "unit": "%"}, {"measurement": "% of total cells with SnRK1A-GFP in location [drawing 2] (cytoplasm)", "setting": "SnRK1A-GFP; −S medium", "result": 92.0, "unit": "%"}, {"measurement": "Number of cells with SnRK1A-GFP in location [drawing 1] (nucleus)", "setting": "SnRK1A-GFP; −S medium", "result": 7}, {"measurement": "Number of cells with SnRK1A-GFP in location [drawing 2] (cytoplasm)", "setting": "SnRK1A-GFP; −S medium", "result": 81}]}
